According to PubChem BioAssay AID2060603 (Molecular Pharmacology Branch, DTP, NCI, 2025):

Tested on: 422866-222-R5-J1-PDC spheroid viability
Experiment: Anticancer human tumor 422866-222-R5-J1-PDC patient-derived pancreatic adenocarcinoma cell line growth inhibition [CLK]
Details: spheroids with HUVEC and MSC; for IC50: curve of first compound; for viability, T/C: stronger effect = lower value
How it was run: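 Multi-cell-type spheroids combined patient-derived tumor cells with HUVEC endothelial cells and human mesenchymal stem cells. Paired agents were dosed in half-log steps down from about clinical Cmax, or from 10 microM where Cmax was unknown.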

[1] = second compound 0.0316 µM, first compound 0.0316 µM
[2] = second compound 0.0316 µM, first compound 0.1 µM
[3] = second compound 0.0316 µM, first compound 0.316 µM
[4] = second compound 0.0316 µM, first compound 1 µM
[5] = second compound 0.0316 µM, first compound 3.16 µM
[6] = second compound 0.0316 µM, first compound 10 µM
[7] = second compound 0.1 µM, first compound 0.0316 µM
[8] = second compound 0.1 µM, first compound 0.1 µM
[9] = second compound 0.1 µM, first compound 0.316 µM
[10] = second compound 0.1 µM, first compound 1 µM
[11] = second compound 0.1 µM, first compound 3.16 µM
[12] = second compound 0.1 µM, first compound 10 µM
[13] = second compound 0.316 µM, first compound 0.0316 µM
[14] = second compound 0.316 µM, first compound 0.1 µM
[15] = second compound 0.316 µM, first compound 0.316 µM
[16] = second compound 0.316 µM, first compound 1 µM
[17] = second compound 0.316 µM, first compound 3.16 µM
[18] = second compound 0.316 µM, first compound 10 µM
[19] = second compound 1 µM, first compound 0.0316 µM
[20] = second compound 1 µM, first compound 0.1 µM
[21] = second compound 1 µM, first compound 0.316 µM
[22] = second compound 1 µM, first compound 1 µM
[23] = second compound 1 µM, first compound 3.16 µM
[24] = second compound 1 µM, first compound 10 µM
[25] = second compound 3.16 µM, first compound 0.0316 µM
[26] = second compound 3.16 µM, first compound 0.1 µM
[27] = second compound 3.16 µM, first compound 0.316 µM
[28] = second compound 3.16 µM, first compound 1 µM
[29] = second compound 3.16 µM, first compound 3.16 µM
[30] = second compound 3.16 µM, first compound 10 µM
[31] = second compound 10 µM, first compound 0.0316 µM
[32] = second compound 10 µM, first compound 0.1 µM
[33] = second compound 10 µM, first compound 0.316 µM
[34] = second compound 10 µM, first compound 1 µM
[35] = second compound 10 µM, first compound 3.16 µM
[36] = second compound 10 µM, first compound 10 µM
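Also: spheroids exposed to agents for seven days before readout.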

For `CC1(C)CCC(CN2CCN(c3ccc(C(=O)NS(=O)(=O)c4ccc(NCC5CCOCC5)c([N+](=O)[O-])c4)c(Oc4cnc5[nH]ccc5c4)c3)CC2)=C(c2ccc(Cl)cc2)C1` + CNC(=O)c1ccc(Nc2nc(OC3CCCC3)c3c(-c4ccc5nc(C)oc5c4)c[nH]c3n2)c(OC)c1, the IC50 (second compound 0.0316 µM) was > 10 µM, the IC50 (second compound 0.1 µM) was > 10 µM and the IC50 (second compound 0.316 µM) was > 10 µM. The IC50 (second compound 1 µM) was > 10 µM, the IC50 (second compound 3.16 µM) was > 10 µM and the IC50 (second compound 10 µM) was > 10 µM. The viability, T/C [1] was 115%, the viability, T/C [2] was 87.5% and the viability, T/C [3] was 93.9%. It also gave a viability, T/C [4] of 119%, a viability, T/C [5] of 131% and a viability, T/C [6] of 93.4%. It also gave a viability, T/C [7] of 114%, a viability, T/C [8] of 90% and a viability, T/C [9] of 98.7%. The viability, T/C [10] was 100%, the viability, T/C [11] was 114% and the viability, T/C [12] was 81.3%. The viability, T/C [13] was 84.6%, the viability, T/C [14] was 71.9% and the viability, T/C [15] was 70.1%. It also gave a viability, T/C [16] of 75.7%, a viability, T/C [17] of 86.6% and a viability, T/C [18] of 78%. The viability, T/C [19] was 75.3%, the viability, T/C [20] was 76.4% and the viability, T/C [21] was 76%. It also gave a viability, T/C [22] of 70.7%, a viability, T/C [23] of 66% and a viability, T/C [24] of 57.1%. It also gave a viability, T/C [25] of 65.2%, a viability, T/C [26] of 76.6% and a viability, T/C [27] of 66.4%. For the same molecule, the viability, T/C [28] was 67.7%, the viability, T/C [29] was 76.8% and the viability, T/C [30] was 79.5%. For the same molecule, the viability, T/C [31] was 60.3%, the viability, T/C [32] was 62.4% and the viability, T/C [33] was 61%. It also gave a viability, T/C [34] of 56.6%, a viability, T/C [35] of 78.1% and a viability, T/C [36] of 84.3%.

In the case of `CC1COCCN1c1cc(C2(S(C)(=N)=O)CC2)nc(-c2ccnc3[nH]ccc23)n1` (centres undefined) + CNC(=O)c1ccc(Nc2nc(OC3CCCC3)c3c(-c4ccc5nc(C)oc5c4)c[nH]c3n2)c(OC)c1, the IC50 (second compound 0.0316 µM) is reported as 7.15 µM, the IC50 (second compound 0.1 µM) is reported as > 10 µM and the IC50 (second compound 0.316 µM) is reported as 2.56 µM. For the same molecule, the IC50 (second compound 1 µM) was 1.56 µM, the IC50 (second compound 3.16 µM) was 0.973 µM and the IC50 (second compound 10 µM) was 0.63 µM. It also gave a viability, T/C [1] of 108%, a viability, T/C [2] of 137% and a viability, T/C [3] of 104%. It also gave a viability, T/C [4] of 102%, a viability, T/C [5] of 59.6% and a viability, T/C [6] of 46.2%. For the same molecule, the viability, T/C [7] was 106%, the viability, T/C [8] was 98.4% and the viability, T/C [9] was 88%. The viability, T/C [10] was 84.6%, the viability, T/C [11] was 56.9% and the viability, T/C [12] was 60.6%. The viability, T/C [13] was 79.8%, the viability, T/C [14] was 71.6% and the viability, T/C [15] was 69.3%. For the same molecule, the viability, T/C [16] was 58%, the viability, T/C [17] was 43.5% and the viability, T/C [18] was 50.5%. For the same molecule, the viability, T/C [19] was 61.4%, the viability, T/C [20] was 66.7% and the viability, T/C [21] was 59.3%. It also gave a viability, T/C [22] of 52.1%, a viability, T/C [23] of 43.6% and a viability, T/C [24] of 52.5%. For the same molecule, the viability, T/C [25] was 65.3%, the viability, T/C [26] was 65.1% and the viability, T/C [27] was 58.3%. The viability, T/C [28] was 50%, the viability, T/C [29] was 44.8% and the viability, T/C [30] was 53.8%. For the same molecule, the viability, T/C [31] was 64.5%, the viability, T/C [32] was 69.2% and the viability, T/C [33] was 58.8%. The viability, T/C [34] was 42.2%, the viability, T/C [35] was 39.8% and the viability, T/C [36] was 50.4%.
